Reference: patent US20260174878A1, “IRAK4 DEGRADATION AGENT AND USE THEREOF” (LEADINGTAC PHARMACEUTICAL (SHAOXING) CO., LTD., priority 2022, published 2026)

Molecular target: T1, IRAK4 protein in normal human PBMCs (Homo sapiens, UniProt Q9NWZ3)
T1 construct: host or cells: normal human PBMCs
T1 sequence (Q9NWZ3 1-460): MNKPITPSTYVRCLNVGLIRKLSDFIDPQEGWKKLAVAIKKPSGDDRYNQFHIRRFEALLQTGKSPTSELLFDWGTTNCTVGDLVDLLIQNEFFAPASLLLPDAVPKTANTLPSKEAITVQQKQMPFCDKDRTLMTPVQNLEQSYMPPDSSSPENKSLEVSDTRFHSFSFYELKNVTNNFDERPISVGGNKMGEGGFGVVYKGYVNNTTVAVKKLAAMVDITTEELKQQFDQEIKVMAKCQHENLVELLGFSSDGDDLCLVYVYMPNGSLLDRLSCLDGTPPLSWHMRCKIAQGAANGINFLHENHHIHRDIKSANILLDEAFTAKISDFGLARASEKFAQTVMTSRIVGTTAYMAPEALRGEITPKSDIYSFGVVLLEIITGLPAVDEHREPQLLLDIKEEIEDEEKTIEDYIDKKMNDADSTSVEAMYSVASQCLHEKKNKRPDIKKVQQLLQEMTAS
Experiment: Degradation of IRAK4 protein in normal human PBMCs (AlphaLISA)
Assay type: cell-based
Details: 24 h incubation
Protocol: The cryopreserved normal human PBMCs (Milestone, PB010C) were thawed and resuspended in RPMI 1640 medium (Gibco, A1049101) supplemented with 10% fetal bovine serum (Gibco, 10099141), 100 U/mL penicillin, and 100 µg/mL streptomycin (Gibco, 15140122). After 0.95 mL of cells were plated in each well of a 24-well cell culture plate, 50 µL of diluted compound solution was added to corresponding wells with cells, such that the final concentration of the compound fell within the range of 0.01-3000 nM. The final concentration of DMSO was 0.25%. After the compound-treated cell plate was incubated in an incubator at 37° C. with 5% CO2 for 24 h, the cells were collected into 1.5 mL centrifuge tubes and centrifuged at 1000 rpm at 4° C. for 5 min. The cell pellets were washed twice with 1×DPBS. The resuspended cells were lysed with 100 μL of lysis buffer, left to stand on ice for 30 min, and then centrifuged at 14000 g at 4° C. for 10 min. The samples of the cell lysate supernatant after centrifugation were cryopreserved at −80° C. before testing. The cell lysis buffer was a Western and IP cell lysis buffer (Beyotime, P0013) supplemented with 1 mM phenylmethylsulfonyl fluoride and a protease inhibitor cocktail (Beyotime, P1008).
The total protein concentrations of the cell lysate samples were determined using a BCA protein quantification kit (Tiangen, PA115-02).
The prepared PBMC lysate samples were assayed for IRAK4 concentrations using a human IRAK4 AlphaLISA assay kit (PerkinElmer, AL3117C) to determine the degradation effects of the compounds on IRAK4. The method is as follows:
5 μL of each of IRAK4 standard solutions with different concentrations and test samples of cell lysate supernatant were added to a white 384-well plate (PerkinElmer, 6007299), and then 10 μL of 5× anti-IRAK4 […] beads was added to each well (final concentration of 10 μg/mL). The plate was incubated at room temperature for 30 min. Then 10 μL of 5× biotin-labeled anti-IRAK4 antibody was added to each well (final concentration of 1 nM), and the plate was incubated at room temperature for another 60 min. Finally, 25 μL of 2× streptavidin-labeled donor beads was added to each well (final concentration of 40 μg/mL), and the plate was incubated at room temperature for another 30 min. After the incubation was completed, AlphaLISA signal values were measured on a microplate reader EnVision (PerkinElmer, 2105) in the AlphaScreen standard mode. A standard curve was plotted from the AlphaLISA signal values of the IRAK4 standard solutions with different concentrations, and the IRAK4 concentration of each cell lysate supernatant was determined according to the corresponding concentrations on the standard curve for the AlphaLISA signal values of the test samples and by performing corresponding correction on the total protein concentration of each sample obtained by BCA quantification. The degradation rates for the compounds at each concentration were calculated by comparing the IRAK4 concentration with that of the control group. Then non-linear curve fittings for logarithmic concentration-inhibition rate were performed using GraphPad Prism 8, and the DC50 and Dmax values of the compound were obtained.

Row | Structure (SMILES) | DC50 | Dmax
1 | COc1ccc(C(=O)N2CCC3(CCC(CN4CCC(n5cc(NC(=O)c6cnn7ccc(N8CC9CCC(C8)O9)nc67)c(C(F)F)n5)CC4)CC3)CC2)cc1N1CCC(=O)NC1=O [Example 6, 5-(8-oxa-3-azabicyclo[3.2.1]octan-3-yl)-N-(3-(difluoromethyl)-1-(1-((3-(3-(2,4-dioxotetrahydropyrimidin-1(2H)-yl)-4-methoxybenzoyl)-3-azaspiro[5.5]undecan-9-yl)methyl)piperidin-4-yl)-1H-pyrazol-4-yl)pyrazolo[1,5-a]pyrimidine-3-carboxamide] | 0.56 nM | 97.9%
2 | O=C1CCN(c2cc(C(=O)N3CCC4(CCC(CN5CCC(n6cc(NC(=O)c7cnn8ccc(N9CCS(=O)(=O)CC9)nc78)c(C(F)F)n6)CC5)CC4)CC3)ccc2Cl)C(=O)N1 [Example 29, N-(1-(1-((3-(4-chloro-3-(2,4-dioxotetrahydropyrimidin-1(2H)-yl)benzoyl)-3-azaspiro[5.5]undecan-9-yl)methyl)piperidin-4-yl)-3-(difluoromethyl)-1H-pyrazol-4-yl)-5-(1,1-dioxothiomorpholinyl) pyrazolo[1,5-a]pyrimidine-3-carboxamide] | 0.53 nM | 98.2%
3 | COc1ccc(C(=O)N2CCC3(CCC(CCN4CCC(n5cc(NC(=O)c6cnn7ccc(N8CCOCC8)nc67)c(C(F)F)n5)CC4)CC3)CC2)cc1N1CCC(=O)NC1=O [Example 16, N-(3-(difluoromethyl)-1-(1-(2-(3-(3-(2,4-dioxotetrahydropyrimidin-1(2H)-yl)-4-methoxybenzoyl)-3-azaspiro[5.5]undecan-9-yl)ethyl)piperidin-4-yl)-1H-pyrazol-4-yl)-5-morpholinopyrazolo [1,5-a]pyrimidine-3-carboxamide] | 0.7 nM | 98.4%
4 | O=C1CCN(c2cc(C(=O)N3CCC4(CCC(CN5CCC(n6cc(NC(=O)c7cnn8ccc(N9CCC[C@H](O)C9)nc78)c(C(F)F)n6)CC5)CC4)CC3)ccc2Cl)C(=O)N1 [Example 26, (S)—N-(1-(1-((3-(4-chloro-3-(2,4-dioxotetrahydropyrimidin-1(2H)-yl)benzoyl)-3-azaspiro[5.5]undecan-9-yl)methyl)piperidin-4-yl)-3-(difluoromethyl)-1H-pyrazol-4-yl)-5-(3-hydroxypiperidin-1-yl)pyrazolo[1,5-a]pyrimidine-3-carboxamide] | 0.35 nM | 97.8%
5 | Cc1ccc(C(=O)N2CCC3(CCC(CN4CCC(n5cc(NC(=O)c6cnn7ccc(N8CCOCC8)nc67)c(C(F)F)n5)CC4)CC3)CC2)cc1N1CCC(=O)NC1=O [Example 13, N-(3-(difluoromethyl)-1-(1-((3-(3-(2,4-dioxotetrahydropyrimidin-1(2H)-yl)-4-methylbenzoyl)-3-azaspiro[5.5]undecan-9-yl)methyl)piperidin-4-yl)-1H-pyrazol-4-yl)-5-morpholinopyrazolo[1,5-a]pyrimidine-3-carboxamide] | 0.21 nM | 98.2%
6 | COc1ccc(C(=O)N2CCC3(CCN(CCCN4CCC(n5cc(NC(=O)c6cnn7ccc(N8CCOCC8)nc67)c(C(F)F)n5)CC4)CC3)CC2)cc1N1CCC(=O)NC1=O [Example 28, N-(3-(difluoromethyl)-1-(1-(3-(9-(3-(2,4-dioxotetrahydropyrimidin-1(2H)-yl)-4-methoxybenzoyl)-3,9-diazaspiro[5.5]undecan-3-yl)propyl)piperidin-4-yl)-1H-pyrazol-4-yl)-5-morpholinopyrazolo[1,5-a]pyrimidine-3-carboxamide] | 4.73 nM | 107%
7 | O=C1CCN(c2cc(C(=O)N3CCC4(CCC(CN5CCC(n6cc(NC(=O)c7cnn8ccc(N9CCOCC9)nc78)c(C(F)F)n6)CC5)CC4)CC3)ccc2F)C(=O)N1 [Example 12, N-(3-(difluoromethyl)-1-(1-((3-(3-(2,4-dioxotetrahydropyrimidin-1(2H)-yl)-4-fluorobenzoyl)-3-azaspiro[5.5]undecan-9-yl)methyl)piperidin-4-yl)-1H-pyrazol-4-yl)-5-morpholinopyrazolo[1,5-a]pyrimidine-3-carboxamide] | 0.37 nM | 98%
8 | Cc1ccc(C(=O)N2CCC3(CCC(CN4CCC(n5cc(NC(=O)c6cnn7ccc(N8CCC[C@H](N)C8)nc67)c(C(F)F)n5)CC4)CC3)CC2)cc1N1CCC(=O)NC1=O [Example 23, (S)-5-(3-aminopiperidin-1-yl)-N-(3-(difluoromethyl)-1-(1-((3-(3-(2,4-dioxotetrahydropyrimidin-1(2H)-yl)-4-methylbenzoyl)-3-azaspiro[5.5]undecan-9-yl)methyl)piperidin-4-yl)-1H-pyrazol-4-yl)pyrazolo[1,5-a]pyrimidine-3-carboxamide] | 2.17 nM | 99%

The next lines start with the values.

Row | DC50 | Dmax | Structure (SMILES)
9 | 0.45 nM | 96.2% | Cc1ccc(C(=O)N2CCC3(CCC(CN4CCC(n5cc(NC(=O)c6cnn7ccc(N8C[C@H]9C[C@@H]8CO9)nc67)c(C(F)F)n5)CC4)CC3)CC2)cc1N1CCC(=O)NC1=O [Example 21, 5-((1R,4R)-2-oxa-5-azabicyclo[2.2.1]heptan-5-yl)-N-(3-(difluoromethyl)-1-(1-((3-(3-(2,4-dioxotetrahydropyrimidin-1(2H)-yl)-4-methylbenzoyl)-3-azaspiro[5.5]undecan-9-yl)methyl)piperidin-4-yl)-1H-pyrazol-4-yl)pyrazolo[1,5-a]pyrimidine-3-carboxamide]
10 | 0.28 nM | 97.7% | COc1ccc(C(=O)N2CCC3(CCC(CN4CCC(n5cc(NC(=O)c6cnn7ccc(N8C[C@H]9C[C@@H]8CO9)nc67)c(C(F)F)n5)CC4)CC3)CC2)cc1N1CCC(=O)NC1=O [Example 3, 5-((1R,4R)-2-oxa-5-azabicyclo[2.2.1]heptan-5-yl)-N-(3-(difluoromethyl)-1-(1-((3-(3-(2,4-dioxotetrahydropyrimidin-1(2H)-yl)-4-methoxybenzoyl)-3-azaspiro[5.5]undecan-9-yl)methyl)piperidin-4-yl)-1H-pyrazol-4-yl)pyrazolo[1,5-a]pyrimidine-3-carboxamide]
11 | 0.39 nM | 98.1% | O=C1CCN(c2cc(C(=O)N3CCC(CCCCN4CCC(n5cc(NC(=O)c6cnn7ccc(N8C[C@H]9C[C@@H]8CO9)nc67)c(C(F)F)n5)CC4)CC3)ccc2Cl)C(=O)N1 [Example 7, 5-((1R,4R)-2-oxa-5-azabicyclo[2.2.1]heptan-5-yl)-N-(1-(1-(4-(1-(4-chloro-3-(2,4-dioxotetrahydropyrimidin-1(2H)-yl)benzoyl)piperidin-4-yl)butyl)piperidin-4-yl)-3-(difluoromethyl)-1H-pyrazol-4-yl)pyrazolo[1,5-a]pyrimidine-3-carboxamide]
12 | 0.72 nM | 95.7% | O=C1CCN(c2cc(C(=O)N3CCC4(CCC(CCN5CCC(n6cc(NC(=O)c7cnn8ccc(N9CCOCC9)nc78)c(C(F)F)n6)CC5)CC4)CC3)ccc2Cl)C(=O)N1 [Example 20, N-(1-(1-(2-(3-(4-chloro-3-(2,4-dioxotetrahydropyrimidin-1(2H)-yl)benzoyl)-3-azaspiro[5.5]undecan-9-yl)ethyl)piperidin-4-yl)-3-(difluoromethyl)-1H-pyrazol-4-yl)-5-morpholinopyrazolo[1,5-a]pyrimidine-3-carboxamide]
